How the values were obtained:
[1] = biological target: T1, Inactive-N119S Dd-NDPK (EI-N119S) (Dictyostelium discoideum, UniProt P22887, F64W/H122G/N119S); assay: Equilibrium fluorescence titration of nucleotide binding, inactive Dd-NDPK variant with N119S; details: relative affinity of NTP for both enzymes
T1 construct: made in house
Method: All numbers in italics have already been published (Schneider, 1998, 2000) The kinetic constants were measured at the pre-steady-state level using a fluorescence stopped-flow device. The binding constants were determined at equilibrium by recording the increase in fluorescence (Schneider, 2000). Values are the average of three independent determinations.
In contrast to what is observed with natural nucleotides, the Ser mutation specifically improves the catalytic efficiency with nucleotides analogs as shown in Table I; ddGTPs and AZT-TP react, respectively, 1.5 and 4 times faster with the N119S enzyme. […] Analog binding affinity was measured using a variant of Dd-NDPK (EI) as described (Schneider, 2000). This mutant (H122G-F64W) lacks the catalytic histidine, and a tryptophan replaces the phenylalanine stacking on the base in the active site (Schneider, 2000). The mutation N119S was inserted in EI in order to measure the nucleotide affinity by fluorescence titration. The Ser contribution to the binding was evaluated from the relative affinity of NTP for both enzymes (Table I).
for N119S, N119T and N119Y mutations, respectively. Altered bases as compared to the wild type sequence are underlined in bold. Sequences were checked by automatic sequencing. The mutant EI-N119S was obtained by mutation of the previously described F64W-H122G mutated NDP kinase (here called EI) (Schneider 2000).

[2] = biological target: T2, Dictyostelium discoideum NDP kinase inactive variant EI (H122G-F64W) (Dictyostelium discoideum, UniProt P22887, F64W/H122G); assay: biochemical; assay type: binding
T2 construct: made in house
T2 sequence (P22887 whole entry F64W/H122G): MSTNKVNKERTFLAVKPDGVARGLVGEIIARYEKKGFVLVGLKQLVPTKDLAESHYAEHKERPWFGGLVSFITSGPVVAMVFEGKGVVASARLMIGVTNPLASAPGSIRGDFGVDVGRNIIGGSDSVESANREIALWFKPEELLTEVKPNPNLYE
Method: (§1) The binding constants were determined at equilibrium by recording the increase in fluorescence (Schneider, 2000).
(§2) Analog binding affinity was measured using a variant of Dd-NDPK (EI) as described (Schneider, 2000). […] The mutation N119S was inserted in EI in order to measure the nucleotide affinity by fluorescence titration.
(§3) Altered bases as compared to the wild type sequence are underlined in bold. Sequences were checked by automatic sequencing. The mutant EI-N119S was obtained by mutation of the previously described F64W-H122G mutated NDP kinase (here called EI) (Schneider 2000).

[3] = biological target: T3, Dictyostelium discoideum NDP kinase inactive variant EI-N119S (H122G-F64W-N119S) (Dictyostelium discoideum, UniProt P22887, F64W/H122G/N119S); assay: biochemical; assay type: binding; details: for increase of affinity by Ser (N119S): relative KD, EI versus EI-N119S
T3 construct: made in house
T3 sequence (P22887 whole entry F64W/N119S/H122G): as the sequence (P22887 whole entry F64W/H122G) above, with N119S counted along it
Method: as §1, §2, §3

[4] = biological target: T4, human NDP kinase A (NDPK-A) variant N115S, SEQ ID NO: 2 (Homo sapiens, UniProt P15531, N115S); assay: Pre-steady-state phosphotransfer, fluorescence stopped-flow; assay type: biochemical; details: for k2/Ks: catalytic efficiency of phosphotransfer, N115S, pre-steady state; for Specificity change (R): ratio of catalytic efficiencies analog vs natural nucleotide, mutant vs wild type
T4 construct: made in house; host or cells: E. coli
T4 sequence (P15531 whole entry N115S): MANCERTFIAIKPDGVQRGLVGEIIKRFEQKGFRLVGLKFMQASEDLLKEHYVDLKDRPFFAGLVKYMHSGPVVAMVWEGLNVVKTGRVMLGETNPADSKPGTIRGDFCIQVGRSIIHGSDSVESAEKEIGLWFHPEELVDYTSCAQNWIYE

[5] = biological target: T5, human NDP kinase A (NDPK-A) variant L55H-N115S, SEQ ID NO: 3 (Homo sapiens, UniProt P15531, L55H/N115S); assay: as above; assay type: biochemical; details: for k2/Ks: catalytic efficiency of phosphotransfer, L55H-N115S, pre-steady state; for Specificity change (R): ratio of catalytic efficiencies analog vs natural nucleotide, mutant vs wild type
T5 construct: made in house; host or cells: E. coli
T5 sequence (P15531 whole entry L55H/N115S): as the sequence (P15531 whole entry N115S) above, with L55H counted along it

[6] = biological target: T6, human NDP kinase A (NDPK-A, nm23-H1), wild type (Homo sapiens, UniProt P15531); assay: as above; assay type: biochemical; details: catalytic efficiency of phosphotransfer, NDPK-A, pre-steady state
T6 construct: made in house
T6 sequence (P15531 whole entry): as the sequence (P15531 whole entry N115S) above, with S115N counted along it
Method: FIG. 3 depicts the catalytic efficiency of NDPK-A and mutants for nucleoside analogs. The rates of phosphorylation of pure recombinant NDP kinases (1 μM) were measured at the pre-steady state in a fluorescence stopped-flow with d4T-TP (10 to 80 μM). The catalytic efficiency (expressed in M^−1s^−1) was determined from the variation of the rate as a function of analog as shown in FIG. 2 (▾, NDPK-A, ♦ L55H, ● N115S, ▪ L55H-N115S).
The activity assays were performed at the pre-steady state level.
Wild type human NDPK-A and the mutants were expressed and purified according to Schneider et al., 2000, Mol Pharm. Recombinant wild type and mutant Dd-NDPK were obtained as described (Schneid, 1998a), except for N119Y NDP kinase which was partially purified by Q sepharose FF chromatography. Each protein was characterized by […] electrophoresis. The concentration of 17 kDa subunits of the enzyme was either determined by Bradford assay ([…]) or using an absorbance coefficient of ΔA^280=1.249 for a 1 mg/mL solution of human wild type and N115S NDPK-A, and =0.55 for wild type and mutant N119S, N119T Dd-NDP kinases, respectively.
As the diphosphate form of analogs were not always available, the triphosphate analogs were used to study phosphate transfer in reaction as in Scheme I. Experiments were performed with an Hi-Tech DX2 microvolume stopped-flow reaction (Schneider, 1998) at Aexc=296 nm (for Ado derivatives) or […] (for other nucleotides), 2 mm excitation slit and a 320 nm cutoff filter at the emission. After mixing NDPK (1 μM) and NTP or an analogTP (10-500 μM), the intrinsic protein fluorescence was recorded for 10-200 sec. In each experiment, 400 pairs of data were recorded, and the data from 3-4 identical experiments were averaged and fitted to a number of non-linear analytical equations using the software provided by Hi-Tech.
The data were analyzed using the reaction scheme: [drawing 1]
In both the forward and the reverse reactions, the product concentration remains very low, thus the product binding can be neglected, and the observed single step could be attributed to the phosphotransfer (Schneider, 1998). The rate of this observed single step is: [formula]
and reaches a limiting value (k+2) at NTP saturation. […] Therefore, catalytic efficiencies of phosphorylation (CEphos=k+2/(k−1/k+1)=k+2/KS) were measured, which are equivalent to second order constants and allow a reliable comparison of a variety of NDP kinase substrates.

T1 sequence (P22887 whole entry F64W/N119S/H122G): as the sequence (P22887 whole entry F64W/H122G) above, with N119S counted along it

Row | Compound | factor by which Ser 119 reinforces affinity (EI-N119S versus EI) [1] | Kd [2] | Kd [3] | increase of affinity by Ser (N119S) [3] | k2/Ks [4] | Specificity change (R) [4] | k2/Ks [5] | Specificity change (R) [5] | k2/Ks [6]
1 | Cc1cn([C@H]2C[C@H](N=[N+]=[N-])[C@@H](COP(=O)(O)OP(=O)(O)OP(=O)(O)O)O2)c(=O)[nH]c1=O [AZT-TP] | 15 fold | 30 µM | 2.2 µM | 15 fold | 900 M⁻¹ s⁻¹ | (125) | 6770 M⁻¹ s⁻¹ | (240) | 75 M⁻¹ s⁻¹
2 | Nc1nc2c(ncn2[C@H]2CC[C@@H](COP(=O)(O)OP(=O)(O)OP(=O)(O)O)O2)c(=O)[nH]1 [ddGTP, dideoxy-GTP] | 2 fold | 3.5 µM | 2 µM | 2 fold | 750 M⁻¹ s⁻¹ | (60) | 4200 M⁻¹ s⁻¹ | (160) | 190 M⁻¹ s⁻¹
